Tests used:
[1] = target: recombinant DYRK1A kinase (Homo sapiens (Human), UniProt Q13627); experiment: DYRK1A kinase assay (Ser/Thr 18 peptide Z-lyte FRET assay); type: biochemical; conditions: recombinant DYRK1A 0.25 µg/mL, ATP 15 µM, Ser/Thr peptide 18 4 µM, one hour at room temperature; table head prints EC50, method says IC50
Method in brief: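 Recombinant human DYRK1A (0.25 µg/mL) with 15 µM ATP and 4 µM Ser/Thr 18 peptide was incubated 1 h at room temperature with compound (11-point, 10 µM top), in duplicate. Z-lyte FRET read-out (coumarin/fluorescein emission ratio) was converted to percent phosphorylation; IC50 from non-linear regression.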

[2] = test system: Tau phosphorylation at Thr212 (pThr212) in HEK293T cells transfected with DYRK1A and MAPT; experiment: phosphoTau (Thr212) AlphaLISA tau phosphorylation cell assay; type: cell-based; conditions: HEK-293T, HEK293T cells transiently transfected with human DYRK1A and MAPT, compound treatment 18-24 hours, read-out: pTau (Thr212) EC50
Protocol: Representative compounds were screened using the assay procedure for tau phosphorylation activity described below.
HEK293T cells (ATCC, CRL3216) cultured in DMEM (Thermo Fisher Scientific, 10566024) supplemented with 10% FBS (Corning, 35-011-CV) and Penicillin/Streptomycin (Thermo Fisher Scientific, 15140163) were seeded in a 75 cm^2 flask at 8.1 × 10^6 cells/flask. The HEK293T cells were then transiently transfected with 5 µg DYRK1A (NM_001396) human untagged clone (OriGene, SC314641) and 2.5 µg MAPT (441 a.a. Tau gene) (NM_005910) human untagged clone (OriGene, TP313312) using Lipofectamine 3000 (Thermo Fisher Scientific, L30000015) and incubated for 20-30 hours in a humidified incubator at 37° C. and 5% CO^2. Post-incubation, HEK293T cells transfected with the DYRK1A and MAPT expression vectors were harvested and seeded in BioCoat poly-D lysine coated 96-well plates (Corning, 354461) at 3 × 10^4 cells/well.
The above synthesized compounds were screened using the cell assay procedure to assess decreased Tau phosphorylation at Thr212 (pThr212) described below.
Each compound was dissolved in DMSO (Sigma-Aldrich, D8418-100 mL) as a 10 mM stock. 10 mM stocks were serially diluted 1:3, 10-point dose-response curve and added to the cells with a final concentration ranging from 20 µM to 1.1 nM. Cells were treated with compounds in duplicate and incubated for 18-24 hours in a humidified incubator at 37° C. and 5% CO^2.
Following the overnight compound treatment, cells were lysed with 1X Alpha Surefire Ultra Lysis Buffer (Perkin Elmer, ALSU-LB-100ML) complemented with 1X Halt Phosphatase Inhibitor Cocktail (Thermo Fisher Scientific, 78427) and 1X Halt Protease Inhibitor Cocktail (Thermo Fisher Scientific, 78438). Lysates were spun down at 12,000 g for 10 min to remove any cellular debris and 5 µL of lysates were dispensed into a 384-well Opti-Plate (Perkin Elmer, 6007290) for the measurement of Tau phosphorylation in the phosphoTau (Thr212) AlphaLISA assay. Donor antibody, biotinylated HT7Tau (Thermo Fisher Scientific, MN1000B), and acceptor antibody, pThr212Tau (Thermo Fisher Scientific, 44740G) were both added to the cell lysates at a final concentration of 3 nM and incubated for 1 hour at room temperature. Following incubation of the lysates with the donor and acceptor antibodies, anti-rabbit IgG(Fc specific) AlphaLISA acceptor beads (Perkin Elmer, AL104C) were added at a 10 ug/mL final concentration and incubated for 1 hour at room temperature protected from light. Lastly, AlphaScreen streptavidin donor beads (PerkinElmer, 6760002) were added at 40 ug/mL final concentration and incubated for 1 hour at room temperature protected from light. Plates were read at Ex= […], and Em=615 nm on the EnVision Multilabel Plate Reader (Perkin Elmer)
phospho-Tau (Thr212) AlphaLISA signal was used to plot, draw the curve fitting, and determine each compound’s EC50 in Prism (GraphPad).

Cc1nc2ccc(-c3ccn4nc(NCC(C)(C)F)ncc34)nc2n1C(C)C [Compound 1801, N-(2-Fluoro-2-methylpropyl)-5-(3-isopropyl-2-methyl-3H-imidazo[4,5-b]pyridin-5-yl)pyrrolo [2,1-f][1,2,4]triazin-2-amine]
EC50 [1]: 5 nM
EC50 [2]: 152 nM

Reference: patent US20230312605A1, “PYRROLO[2,1-F][1,2,4]TRIAZINES AND PREPARATION AND USES THEREOF” (BioSplice Therapeutics, Inc., priority 2021, published 2023)
